Results: patent US7555415B2, “Methods for the design of estrogen receptor ligands” (Wyeth, priority 2005, dated 2009)

Assays:
[1] = test system: Adjuvant Induced Arthritis (AIA); assay: Adjuvant-induced arthritis: histological scoring of synovitis in tarsal joints; type: in vivo, Lewis rats; settings: for Fibroplasia (0-3) / Inflammatory Cells (0-3) / Pannus (0-2) / Synovial Structure (0-3) / Total Synovitis Score (0-10): means ± SD
Description: Rats were injected with Complete Freund's Adjuvant (CFA), and synovitis in the tarsal joints was monitored.
(§1) Forty-two male, 8-10 weeks old, Lewis rats were housed according to standard facility operating procedures. They received a standard regimen of food and water ad libitum. Each animal was identified by a cage card indicating the project group and animal number. Each rat number was marked by indelible ink marker on the tail. Freund's Adjuvant-Complete (Sigma Immuno Chemicals, St. Louis, Mo.) was used to induce arthritis. Each mL contained 1 mg Mycobacterium tuberculosis heat killed and dried, 0.85 mL mineral oil and 0.15 mL mannide monooleate (Lot No. 084H8800).
(§2) The rats were injected intradermally with 0.1 mL of Freund's Adjuvant-Complete at the base of the tail. The animals were randomized to […], each group containing six rats. The groups received vehicle (2% Tween 80, 0.5% methylcellulose), or the Compound 2 compound at 1.0 mg/kg, 0.3 mg/kg, or 0.1 mg/kg orally each day. The rats began treatment on Day 8 after adjuvant injection.
(§3) At the end of the study the rats were euthanized with CO2, hindlimbs were removed at necropsy and fixed in 10% buffered formalin, and the tarsal joints were decalcified and embedded in paraffin. Histologic sections were stained with Hemotoxylin and Eosin or Saffranin O-Fast Green stain.
(§4) Slides were coded so that the examiner was blind to the treatment groups. Synovial tissue from tarsal joints were evaluated based on synovial hyperplasia, inflammatory cell infiltration, and pannus formation (see Table 4). Articular cartilage and bone was evaluated using Mankin's histological grading system. Biochemical and metabolic abnormalities in articular cartilage was assessed as from osteoarthritic human hip (see J. Bone Joint Surg (AM) 53A:152-153) (Table 5).

[2] = test system: Collagen Induced Arthritis; assay: Collagen induced arthritis model (anti-type II collagen mAbs plus LPS): hind paw edema; type: in vivo; settings: BALB/c mice, 2.5 mg/kg orally once daily, over the course of the experiment
Description: Compound 2 was evaluated in BALB/c mice, 6-8 weeks of age, in which arthritis was induced by monoclonal antibodies raised against type II collagen, plus lipopolysaccharide (LPS). The animals were administered intravenously with a combination of four different mAbs totaling 4 mg/mouse on day 0, and followed by intravenous administration of […] of LPS 72 hours later (day 3). From day 3, one hour after LPS application, tested compounds were given orally once daily for 15 days. For each animal, an increase in volume of both hind paws was measured using a plethysmometer with water cell (12 mm diameter) on days 0, 5, 7, 10, 14 and 17. Percent inhibition of increase in volume was calculated. Reduction of edema in the hind paws by 30% or more was considered significant.

[3] = test system: Adjuvant Induced Arthritis (AIA); assay: Adjuvant-induced arthritis: histological scoring of cartilage changes (Mankin score) in tarsal joints; type: in vivo, Lewis rats; settings: for Cartilage Cells (0-3) / Cartilage Structure (0-6) / Saffranin-O/Fast Green Staining (0-4) / Total Mankin Score (0-14): means ± SD
Description: as §1, §2, §3, §4

[4] = test system: Adjuvant Induced Arthritis (AIA); assay: Adjuvant Induced Arthritis: daily arthritis severity / paw swelling score; type: in vivo, Lewis rats
[5] = Compound 2, 0.1 mg/kg orally for 2 weeks from day 8 after CFA
[6] = Compound 2, 0.3 mg/kg orally for 2 weeks from day 8 after CFA
[7] = Compound 2, 1 mg/kg orally for 2 weeks from day 8 after CFA
[8] = all concentrations tested (down to 0.1 mg/kg)

For `C[C@@H]1c2cc(F)ccc2-c2ccccc2N1S(=O)(=O)c1ccc(O)cc1` [Compound 2, 4-[(8-Fluoro-6-methylphenanthridin-5(6H)-yl)sulfonyl]phenol], the “Fibroplasia (0-3)” value [1, 5] was 1.75 ± 0.42, the “Inflammatory Cells (0-3)” value [1, 5] was 1.83 ± 0.52 and the “Pannus (0-2)” value [1, 5] was 1.50 ± 0.84. For the same compound, the “Synovial Structure (0-3)” value [1, 5] was 2.33 ± 0.75, the “Total Synovitis Score (0-10)” value [1, 5] was 7.42 ± 2.25 and the “Fibroplasia (0-3)” value [1, 6] was 1.67 ± 0.26*t. For the same compound, the “Inflammatory Cells (0-3)” value [1, 6] was 1.25 ± 0.27, the “Pannus (0-2)” value [1, 6] was 0.50 ± 0.84 and the “Synovial Structure (0-3)” value [1, 6] was 1.58 ± 0.38. For the same compound, the “Total Synovitis Score (0-10)” value [1, 6] was 5.00 ± 1.30*#t, the “Fibroplasia (0-3)” value [1, 7] was 1.33 ± 0.41*t and the “Inflammatory Cells (0-3)” value [1, 7] was 1.17 ± 0.26. The “Pannus (0-2)” value [1, 7] was 0.25 ± 0.42, the “Synovial Structure (0-3)” value [1, 7] was 1.42 ± 0.38 and the “Total Synovitis Score (0-10)” value [1, 7] was 4.17 ± 1.21*#t. The Overall synovitis score [1, 8] was “significantly improved”, the “Inhibition of paw edema” value [2] was over 30% and the “Tidemark Integrity (0-1)” value [3, 5] was 0. For the same compound, the “Cartilage Cells (0-3)” value [3, 5] was 1.92 ± 0.21, the “Cartilage Structure (0-6)” value [3, 5] was 2.33 ± 0.68 and the “Saffranin-O/Fast Green Staining (0-4)” value [3, 5] was 2.42 ± 0.67. For the same compound, the “Total Mankin Score (0-14)” value [3, 5] was 6.83 ± 1.25, the “Tidemark Integrity (0-1)” value [3, 6] was 0 and the “Cartilage Cells (0-3)” value [3, 6] was 1.50 ± 0.32. The “Cartilage Structure (0-6)” value [3, 6] was 1.75 ± 0.42, the “Saffranin-O/Fast Green Staining (0-4)” value [3, 6] was 2.17 ± 0.26 and the “Total Mankin Score (0-14)” value [3, 6] was 5.42 ± 0.74*t. The “Tidemark Integrity (0-1)” value [3, 7] was 0, the “Cartilage Cells (0-3)” value [3, 7] was 1.17 ± 0.26*t and the “Cartilage Structure (0-6)” value [3, 7] was 1.25 ± 0.27. For the same compound, the “Saffranin-O/Fast Green Staining (0-4)” value [3, 7] was 2.17 ± 0.26, the “Total Mankin Score (0-14)” value [3, 7] was 4.58 ± 0.74*t and the Overall cartilage score [3, 8] was “significantly improved”. For the same compound, the “Paw swelling score (maximal score per day 12)” value ([4]; 0.3 mg/kg (first column so headed, c3) orally each day from Day 8, Day 8) was 11.5, the “Paw swelling score (maximal score per day 12)” value ([4]; 0.3 mg/kg (first column so headed, c3) orally each day from Day 8, Day 9) was 9.8 and the “Paw swelling score (maximal score per day 12)” value ([4]; 0.3 mg/kg (first column so headed, c3) orally each day from Day 8, Day 10) was 7.3. For the same compound, the “Paw swelling score (maximal score per day 12)” value ([4]; 0.3 mg/kg (first column so headed, c3) orally each day from Day 8, Day 11) was 7, the “Paw swelling score (maximal score per day 12)” value ([4]; 0.3 mg/kg (first column so headed, c3) orally each day from Day 8, Day 12) was 6.7 and the “Paw swelling score (maximal score per day 12)” value ([4]; 0.3 mg/kg (first column so headed, c3) orally each day from Day 8, Day 13) was 3.7. The “Paw swelling score (maximal score per day 12)” value ([4]; 0.3 mg/kg (first column so headed, c3) orally each day from Day 8, Day 14) was 3, the “Paw swelling score (maximal score per day 12)” value ([4]; 0.3 mg/kg (first column so headed, c3) orally each day from Day 8, Day 15) was 3.7 and the “Paw swelling score (maximal score per day 12)” value ([4]; 0.3 mg/kg (first column so headed, c3) orally each day from Day 8, Day 16) was 2.3. For the same compound, the “Paw swelling score (maximal score per day 12)” value ([4]; 0.3 mg/kg (first column so headed, c3) orally each day from Day 8, Day 17) was 2.3, the “Paw swelling score (maximal score per day 12)” value ([4]; 0.3 mg/kg (first column so headed, c3) orally each day from Day 8, Day 18) was 2.3 and the “Paw swelling score (maximal score per day 12)” value ([4]; 0.3 mg/kg (first column so headed, c3) orally each day from Day 8, Day 19) was 2. The “Paw swelling score (maximal score per day 12)” value ([4]; 0.3 mg/kg (first column so headed, c3) orally each day from Day 8, Day 20) was 2, the “Paw swelling score (maximal score per day 12)” value ([4]; 0.3 mg/kg (first column so headed, c3) orally each day from Day 8, Day 21) was 1.7 and the “Paw swelling score (maximal score per day 12)” value ([4]; 0.3 mg/kg (first column so headed, c3) orally each day from Day 8, Day 22) was 1.7. The “Paw swelling score (maximal score per day 12)” value ([4]; 0.3 mg/kg (first column so headed, c3) orally each day from Day 8, Day 23) was 1, the “Paw swelling score (maximal score per day 12)” value ([4]; 0.3 mg/kg (first column so headed, c3) orally each day from Day 8, Day 24) was 1.3 and the “Paw swelling score (maximal score per day 12)” value ([4]; 0.3 mg/kg (second column so headed, c4) orally each day from Day 8, Day 8) was 11.3. The “Paw swelling score (maximal score per day 12)” value ([4]; 0.3 mg/kg (second column so headed, c4) orally each day from Day 8, Day 9) was 10.7, the “Paw swelling score (maximal score per day 12)” value ([4]; 0.3 mg/kg (second column so headed, c4) orally each day from Day 8, Day 10) was 9.3 and the “Paw swelling score (maximal score per day 12)” value ([4]; 0.3 mg/kg (second column so headed, c4) orally each day from Day 8, Day 11) was 9.7. For the same compound, the “Paw swelling score (maximal score per day 12)” value ([4]; 0.3 mg/kg (second column so headed, c4) orally each day from Day 8, Day 12) was 10, the “Paw swelling score (maximal score per day 12)” value ([4]; 0.3 mg/kg (second column so headed, c4) orally each day from Day 8, Day 13) was 4.2 and the “Paw swelling score (maximal score per day 12)” value ([4]; 0.3 mg/kg (second column so headed, c4) orally each day from Day 8, Day 14) was 3.5. For the same compound, the “Paw swelling score (maximal score per day 12)” value ([4]; 0.3 mg/kg (second column so headed, c4) orally each day from Day 8, Day 15) was 3.5, the “Paw swelling score (maximal score per day 12)” value ([4]; 0.3 mg/kg (second column so headed, c4) orally each day from Day 8, Day 16) was 3.3 and the “Paw swelling score (maximal score per day 12)” value ([4]; 0.3 mg/kg (second column so headed, c4) orally each day from Day 8, Day 17) was 3.3. The “Paw swelling score (maximal score per day 12)” value ([4]; 0.3 mg/kg (second column so headed, c4) orally each day from Day 8, Day 18) was 3.3, the “Paw swelling score (maximal score per day 12)” value ([4]; 0.3 mg/kg (second column so headed, c4) orally each day from Day 8, Day 19) was 3 and the “Paw swelling score (maximal score per day 12)” value ([4]; 0.3 mg/kg (second column so headed, c4) orally each day from Day 8, Day 20) was 2.8. The “Paw swelling score (maximal score per day 12)” value ([4]; 0.3 mg/kg (second column so headed, c4) orally each day from Day 8, Day 21) was 2.5, the “Paw swelling score (maximal score per day 12)” value ([4]; 0.3 mg/kg (second column so headed, c4) orally each day from Day 8, Day 22) was 2.5 and the “Paw swelling score (maximal score per day 12)” value ([4]; 0.3 mg/kg (second column so headed, c4) orally each day from Day 8, Day 23) was 1.2. For the same compound, the “Paw swelling score (maximal score per day 12)” value ([4]; 0.3 mg/kg (second column so headed, c4) orally each day from Day 8, Day 24) was 1.3, the “Paw swelling score (maximal score per day 12)” value ([4]; 1 mg/kg orally each day from Day 8, Day 8) was 11.3 and the “Paw swelling score (maximal score per day 12)” value ([4]; 1 mg/kg orally each day from Day 8, Day 9) was 8.8. The “Paw swelling score (maximal score per day 12)” value ([4]; 1 mg/kg orally each day from Day 8, Day 10) was 7, the “Paw swelling score (maximal score per day 12)” value ([4]; 1 mg/kg orally each day from Day 8, Day 11) was 6 and the “Paw swelling score (maximal score per day 12)” value ([4]; 1 mg/kg orally each day from Day 8, Day 12) was 5. The “Paw swelling score (maximal score per day 12)” value ([4]; 1 mg/kg orally each day from Day 8, Day 13) was 1.7, the “Paw swelling score (maximal score per day 12)” value ([4]; 1 mg/kg orally each day from Day 8, Day 14) was 1.3 and the “Paw swelling score (maximal score per day 12)” value ([4]; 1 mg/kg orally each day from Day 8, Day 15) was 1.3. For the same compound, the “Paw swelling score (maximal score per day 12)” value ([4]; 1 mg/kg orally each day from Day 8, Day 16) was 1.2, the “Paw swelling score (maximal score per day 12)” value ([4]; 1 mg/kg orally each day from Day 8, Day 17) was 1.2 and the “Paw swelling score (maximal score per day 12)” value ([4]; 1 mg/kg orally each day from Day 8, Day 18) was 1.2. The “Paw swelling score (maximal score per day 12)” value ([4]; 1 mg/kg orally each day from Day 8, Day 19) was 1.2, the “Paw swelling score (maximal score per day 12)” value ([4]; 1 mg/kg orally each day from Day 8, Day 20) was 1.2 and the “Paw swelling score (maximal score per day 12)” value ([4]; 1 mg/kg orally each day from Day 8, Day 21) was 1.2. The “Paw swelling score (maximal score per day 12)” value ([4]; 1 mg/kg orally each day from Day 8, Day 22) was 1.2, the “Paw swelling score (maximal score per day 12)” value ([4]; 1 mg/kg orally each day from Day 8, Day 23) was 1 and the “Paw swelling score (maximal score per day 12)” value ([4]; 1 mg/kg orally each day from Day 8, Day 24) was 0.8. The “Paw swelling and redness (joint scores)” value ([4]; following treatment, there appeared to be a dose response) was “Decreases”.
